Test results reported in patent US20230365592A1 (Agios Pharmaceuticals, Inc., priority 2022, published 2023).

Biological target: T1, human PAH with the R408W mutation (Homo sapiens, UniProt P00439, R408W)
T1 construct: expressed in transfected cells
T1 sequence (P00439 1-452 R408W): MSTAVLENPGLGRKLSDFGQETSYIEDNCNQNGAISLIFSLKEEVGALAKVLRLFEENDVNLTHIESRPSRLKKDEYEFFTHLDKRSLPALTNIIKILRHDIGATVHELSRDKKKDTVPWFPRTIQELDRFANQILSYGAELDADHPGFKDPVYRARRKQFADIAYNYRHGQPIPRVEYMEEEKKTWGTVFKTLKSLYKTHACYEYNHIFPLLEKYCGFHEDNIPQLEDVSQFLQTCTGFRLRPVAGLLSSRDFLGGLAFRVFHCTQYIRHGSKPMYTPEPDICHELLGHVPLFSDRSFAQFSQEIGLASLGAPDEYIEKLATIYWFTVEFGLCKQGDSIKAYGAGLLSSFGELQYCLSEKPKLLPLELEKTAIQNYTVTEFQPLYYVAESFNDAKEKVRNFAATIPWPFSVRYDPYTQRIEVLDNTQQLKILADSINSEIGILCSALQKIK
Assay: Cell Based Phenylalanine Flux Assay;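 also: after compound treatment, cells received sepiapterin plus isotope-labelled Phenylalanine for 4 hours, then labelled Tyrosine in the medium was quantified, 10-point 2-fold dilution series run in duplicate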
Conditions: A375 cells expressing human R408W PAH; 24 hrs compound incubation; 13C-Tyrosine by LC-MS; average where tested multiple times; read-out: AC50

AC50 [nM] | Compound
1000 to 5000 | CC(C)(F)c1nnc(C(=O)N2CCc3[nH]cnc3[C@@H]2c2cc3c(C(F)(F)F)cccn3n2)o1 [Example 951, (R)-(5-(2-fluoropropan-2-yl)-1,3,4-oxadiazol-2-yl)(4-(4-(trifluoromethyl)pyrazolo[1,5-a]pyridin-2-yl)-6,7-dihydro-1H-imidazo[4,5-c]pyridin-5(4H)-yl)methanone]
500 to 1000 | Cn1cc(-c2nnc(C(=O)N3CCc4[nH]cnc4[C@H]3c3cc4cccc(C(F)(F)F)n4n3)o2)cn1 [Example 952, (S)-(5-(1-methyl-1H-pyrazol-4-yl)-1,3,4-oxadiazol-2-yl)(4-(7-(trifluoromethyl)pyrazolo[1,5-a]pyridin-2-yl)-6,7-dihydro-1H-imidazo[4,5-c]pyridin-5(4H)-yl)methanone]
1000 to 5000 | Cn1cc(-c2nnc(C(=O)N3CCc4[nH]cnc4[C@@H]3c3cc4cccc(C(F)(F)F)n4n3)o2)cn1 [Example 953, (R)-(5-(1-methyl-1H-pyrazol-4-yl)-1,3,4-oxadiazol-2-yl)(4-(7-(trifluoromethyl)pyrazolo[1,5-a]pyridin-2-yl)-6,7-dihydro-1H-imidazo[4,5-c]pyridin-5(4H)-yl)methanone]
< 500 | Cc1c(-c2nnc(C(=O)N3CCc4[nH]cnc4[C@H]3c3cc4c(F)cccn4n3)o2)cnn1C [Example 954, (S)-(5-(1,5-dimethyl-1H-pyrazol-4-yl)-1,3,4-oxadiazol-2-yl)(4-(4-fluoropyrazolo[1,5-a]pyridin-2-yl)-6,7-dihydro-1H-imidazo[4,5-c]pyridin-5(4H)-yl)methanone]
> 5000 | Cc1c(-c2nnc(C(=O)N3CCc4[nH]cnc4[C@@H]3c3cc4c(F)cccn4n3)o2)cnn1C [Example 955, (R)-(5-(1,5-dimethyl-1H-pyrazol-4-yl)-1,3,4-oxadiazol-2-yl)(4-(4-fluoropyrazolo[1,5-a]pyridin-2-yl)-6,7-dihydro-1H-imidazo[4,5-c]pyridin-5(4H)-yl)methanone]
> 5000 | Cc1cccn2nc([C@H]3c4nc[nH]c4CCN3C(=O)c3nnc(-c4cnccn4)o3)cc12 [Example 956, (R)-(4-(4-methylpyrazolo[1,5-a]pyridin-2-yl)-6,7-dihydro-1H-imidazo[4,5-c]pyridin-5(4H)-yl)(5-(pyrazin-2-yl)-1,3,4-oxadiazol-2-yl)methanone]
< 500 | Cc1cccn2nc([C@@H]3c4nc[nH]c4CCN3C(=O)c3nnc(-c4cnccn4)o3)cc12 [Example 957, (S)-(4-(4-methylpyrazolo[1,5-a]pyridin-2-yl)-6,7-dihydro-1H-imidazo[4,5-c]pyridin-5(4H)-yl)(5-(pyrazin-2-yl)-1,3,4-oxadiazol-2-yl)methanone]
1000 to 5000 | O=C(c1ocnc1C(F)F)N1CCc2[nH]cnc2[C@@H]1c1cc2cccc(Cl)n2n1 [Example 959, (R)-(4-(7-chloropyrazolo[1,5-a]pyridin-2-yl)-6,7-dihydro-1H-imidazo[4,5-c]pyridin-5(4H)-yl)(4-(difluoromethyl)oxazol-5-yl)methanone]
500 to 1000 | CC(C)(O)c1nc(C(F)F)c(C(=O)N2CCc3[nH]cnc3[C@H]2c2cc3cccc(Cl)n3n2)o1 [Example 960, (S)-(4-(7-chloropyrazolo[1,5-a]pyridin-2-yl)-6,7-dihydro-1H-imidazo[4,5-c]pyridin-5(4H)-yl)(4-(difluoromethyl)-2-(2-hydroxypropan-2-yl)oxazol-5-yl)methanone]
1000 to 5000 | CC(C)(O)c1nc(C(F)F)c(C(=O)N2CCc3[nH]cnc3[C@@H]2c2cc3cccc(Cl)n3n2)o1 [Example 961, (R)-(4-(7-chloropyrazolo[1,5-a]pyridin-2-yl)-6,7-dihydro-1H-imidazo[4,5-c]pyridin-5(4H)-yl)(4-(difluoromethyl)-2-(2-hydroxypropan-2-yl)oxazol-5-yl)methanone]
> 5000 | O=C(c1nnc(-c2cnccn2)o1)N1CCc2[nH]cnc2[C@@H]1c1cc2c(F)cccn2n1 [Example 963, (R)-(4-(4-fluoropyrazolo[1,5-a]pyridin-2-yl)-6,7-dihydro-1H-imidazo[4,5-c]pyridin-5(4H)-yl)(5-(pyrazin-2-yl)-1,3,4-oxadiazol-2-yl)methanone]
< 500 | O=C(c1nnc(-c2ccn(C(F)F)n2)o1)N1CCc2[nH]cnc2[C@H]1c1cc2cccc(Cl)n2n1 [Example 964, (S)-(4-(7-chloropyrazolo[1,5-a]pyridin-2-yl)-6,7-dihydro-1H-imidazo[4,5-c]pyridin-5(4H)-yl)(5-(1-(difluoromethyl)-1H-pyrazol-3-yl)-1,3,4-oxadiazol-2-yl)methanone]
> 5000 | O=C(c1nnc(-c2ccn(C(F)F)n2)o1)N1CCc2[nH]cnc2[C@@H]1c1cc2cccc(Cl)n2n1 [Example 965, (R)-(4-(7-chloropyrazolo[1,5-a]pyridin-2-yl)-6,7-dihydro-1H-imidazo[4,5-c]pyridin-5(4H)-yl)(5-(1-(difluoromethyl)-1H-pyrazol-3-yl)-1,3,4-oxadiazol-2-yl)methanone]
500 to 1000 | Cc1ccc2cc([C@@H]3c4nc[nH]c4CCN3C(=O)c3nnc(C4CC4)o3)nn2c1 [Example 966, (S)-(5-cyclopropyl-1,3,4-oxadiazol-2-yl)(4-(6-methylpyrazolo[1,5-a]pyridin-2-yl)-6,7-dihydro-1H-imidazo[4,5-c]pyridin-5(4H)-yl)methanone]
> 5000 | Cc1ccc2cc([C@H]3c4nc[nH]c4CCN3C(=O)c3nnc(C4CC4)o3)nn2c1 [Example 967, (R)-(5-cyclopropyl-1,3,4-oxadiazol-2-yl)(4-(6-methylpyrazolo[1,5-a]pyridin-2-yl)-6,7-dihydro-1H-imidazo[4,5-c]pyridin-5(4H)-yl)methanone]
1000 to 5000 | CC(C)(F)c1nnc(C(=O)N2CCc3[nH]cnc3[C@@H]2c2cc3cccc(Cl)n3n2)o1 [Example 968, (R)-(4-(7-chloropyrazolo[1,5-a]pyridin-2-yl)-6,7-dihydro-1H-imidazo[4,5-c]pyridin-5(4H)-yl)(5-(2-fluoropropan-2-yl)-1,3,4-oxadiazol-2-yl)methanone]
> 5000 | COc1cccn2nc([C@H]3c4nc[nH]c4CCN3C(=O)c3nnc(C(C)(C)F)o3)cc12 [Example 970, (R)-(5-(2-fluoropropan-2-yl)-1,3,4-oxadiazol-2-yl)(4-(4-methoxypyrazolo[1,5-a]pyridin-2-yl)-6,7-dihydro-1H-imidazo[4,5-c]pyridin-5(4H)-yl)methanone]
500 to 1000 | COc1cccn2nc([C@@H]3c4nc[nH]c4CCN3C(=O)c3nnc(C(C)(C)F)o3)cc12 [Example 971, (S)-(5-(2-fluoropropan-2-yl)-1,3,4-oxadiazol-2-yl)(4-(4-methoxypyrazolo[1,5-a]pyridin-2-yl)-6,7-dihydro-1H-imidazo[4,5-c]pyridin-5(4H)-yl)methanone]
< 500 | Cc1c(-c2nnc(C(=O)N3CCc4[nH]cnc4[C@H]3c3cc4ccccn4n3)o2)cnn1C [Example 972, (S)-(5-(1,5-dimethyl-1H-pyrazol-4-yl)-1,3,4-oxadiazol-2-yl)(4-(pyrazolo[1,5-a]pyridin-2-yl)-6,7-dihydro-1H-imidazo[4,5-c)pyridin-5(4H)-yl)methanone]
> 5000 | Cc1c(-c2nnc(C(=O)N3CCc4[nH]cnc4[C@@H]3c3cc4ccccn4n3)o2)cnn1C [Example 973, (R)-(5-(1,5-dimethyl-1H-pyrazol-4-yl)-1,3,4-oxadiazol-2-yl)(4-(pyrazolo[1,5-a]pyridin-2-yl)-6,7-dihydro-1H-imidazo[4,5-c]pyridin-5(4H)-yl)methanone]
1000 to 5000 | O=C(c1nnc(-c2ccccn2)o1)N1CCc2[nH]cnc2[C@@H]1c1cc2cccc(F)n2n1 [Example 974, (R)-(4-(7-fluoropyrazolo[1,5-a]pyridin-2-yl)-6,7-dihydro-1H-imidazo[4,5-c]pyridin-5(4H)-yl)(5-(pyridin-2-yl)-1,3,4-oxadiazol-2-yl)methanone]
< 500 | O=C(c1nnc(-c2ccccn2)o1)N1CCc2[nH]cnc2[C@H]1c1cc2cccc(F)n2n1 [Example 975, (S)-(4-(7-fluoropyrazolo[1,5-a]pyridin-2-yl)-6,7-dihydro-1H-imidazo[4,5-c]pyridin-5(4H)-yl)(5-(pyridin-2-yl)-1,3,4-oxadiazol-2-yl)methanone]
< 500 | Cn1ccc(-c2nnc(C(=O)N3CCc4[nH]cnc4[C@H]3c3cc4cccc(Cl)n4n3)o2)n1 [Example 976, (S)-(4-(7-chloropyrazolo[1,5-a]pyridin-2-yl)-6,7-dihydro-1H-imidazo[4,5-c)pyridin-5(4H)-yl)(5-(1-methyl-1H-pyrazol-3-yl)-1,3,4-oxadiazol-2-yl)methanone]
> 5000 | Cn1ccc(-c2nnc(C(=O)N3CCc4[nH]cnc4[C@@H]3c3cc4cccc(Cl)n4n3)o2)n1 [Example 977, (R)-(4-(7-chloropyrazolo[1,5-a]pyridin-2-yl)-6,7-dihydro-1H-imidazo(4,5-c]pyridin-5(4H)-yl)(5-(1-methyl-1H-pyrazol-3-yl)-1,3,4-oxadiazol-2-yl)methanone]
1000 to 5000 | O=C(c1nnc(-c2cnccn2)o1)N1CCc2[nH]cnc2[C@@H]1c1cc2cccc(Cl)n2n1 [Example 978, (R)-(4-(7-chloropyrazolo[1,5-a]pyridin-2-yl)-6,7-dihydro-1H-imidazo[4,5-c]pyridin-5(4H)-yl)(5-(pyrazin-2-yl)-1,3,4-oxadiazol-2-yl)methanone]
< 500 | O=C(c1nnc(C2CC2)o1)N1CCc2[nH]cnc2[C@H]1c1cc2c(C(F)F)cccn2n1 [Example 980, (S)-(5-cyclopropyl-1,3,4-oxadiazol-2-yl)(4-(4-(difluoromethyl)pyrazolo[1,5-a]pyridin-2-yl)-6,7-dihydro-1H-imidazo[4,5-c]pyridin-5(4H)-yl)methanone]
